Patent publication US6861544B1, “Fluorous tin compounds an methods of using fluorous tin compounds” (University of Pittsburgh, priority 2000, dated 2005)

Tests used:
[1] = Partition coefficient of fluorous tin hydrides, FC-72/CH3CN (GC); format: physicochemical; details: FC-72 (1 mL) / acetonitrile (1 mL), stirred 10 min, GC relative peak area, n-octadecane internal standard
Experimental: (§1) Measurement of the Partition Coefficient of Fluorous Tin hyrides 4a-c. Fluorous tin hydrides (2-12 mg) were stirred with FC-72 (1 mL) and benzene (1 mL) or acetonitrile (1 mL) for 10 min. After separation, n-octadecane was added to both phases as an internal standard (for FC-72 phase, the solvent was evaporated and ethyl acetate (1 mL) was added to dissolve both the tin hydride and n-ocadecane). An aliquot (10 uL) of each phase was injected to GC for three times and the relative peak area was used to calculate the following partition coefficients of tin hydrides: FC-72/CH3CN, 4a, 2.4; 4b, 14; 4c, 48; FC-72/benzene, 4a, 0.7; 4b, 2.5; 4c, 4.7.

[2] = Partition coefficient of fluorous tin hydrides, FC-72/benzene (GC); format: physicochemical; details: FC-72 (1 mL) / benzene (1 mL), stirred 10 min, GC relative peak area, n-octadecane internal standard
Experimental: as §1

[3] = conditions of the reduction of FIG. 4

SMILES	partition coefficient FC-72/CH3CN [1]	partition coefficient FC-72/benzene [2]	solubility in t-butanol [3]
[CH3][SnH]([CH3])[CH2]CC(F)(F)C(F)(F)C(F)(F)C(F)(F)C(F)(F)C(F)(F)F [4a, Dimethyl-(3,3,4,4,5,5,6,6,7,7,8,8,8-tridecafluorooctyl)stannane]	2.4	0.7	–
[CH3][SnH]([CH3])[CH2]CC(F)(F)C(F)(F)C(F)(F)C(F)(F)C(F)(F)C(F)(F)C(F)(F)C(F)(F)F [4b, Dimethyl-(3,3,4,4,5,5,6,6,7,7,8,8,9,9,10,10,10-heptadecafluorodecyl)stannane]	14	2.5	–
[CH3][SnH]([CH3])[CH2]CC(F)(F)C(F)(F)C(F)(F)C(F)(F)C(F)(F)C(F)(F)C(F)(F)C(F)(F)C(F)(F)C(F)(F)F [4c, Dimethyl-(3,3,4,4,5,5,6,6,7,7,8,8,9,9,10,10,11,11,12,12,12-heneicosafluorododecyl)stannane]	48	4.7	–
FC(F)(F)C(F)(F)C(F)(F)C(F)(F)C(F)(F)C(F)(F)C[CH2][SnH]([CH2]CC(F)(F)C(F)(F)C(F)(F)C(F)(F)C(F)(F)C(F)(F)F)[CH2]CC(F)(F)C(F)(F)C(F)(F)C(F)(F)C(F)(F)C(F)(F)F [(C6F13CH2CH2)3SnH]	–	–	insoluble or nearly insoluble
